According to ChEMBL document CHEMBL1123341, “Thromboxane A2 synthase inhibitors. 5-(3-Pyridylmethyl)benzofuran-2-carboxylic acids” (J Med Chem, 1986):
Values after ≈ are worked out from the molar mass of the structure shown.

Tests used:
[1] = molecular target: T1, Thromboxane-A synthase (Homo sapiens) (UniProt P24557); assay: In vitro inhibition of TXA2 biosynthesis in human microsomal platelets; format: functional, microsomes; conditions: Microsome
T1 sequence (whole entry): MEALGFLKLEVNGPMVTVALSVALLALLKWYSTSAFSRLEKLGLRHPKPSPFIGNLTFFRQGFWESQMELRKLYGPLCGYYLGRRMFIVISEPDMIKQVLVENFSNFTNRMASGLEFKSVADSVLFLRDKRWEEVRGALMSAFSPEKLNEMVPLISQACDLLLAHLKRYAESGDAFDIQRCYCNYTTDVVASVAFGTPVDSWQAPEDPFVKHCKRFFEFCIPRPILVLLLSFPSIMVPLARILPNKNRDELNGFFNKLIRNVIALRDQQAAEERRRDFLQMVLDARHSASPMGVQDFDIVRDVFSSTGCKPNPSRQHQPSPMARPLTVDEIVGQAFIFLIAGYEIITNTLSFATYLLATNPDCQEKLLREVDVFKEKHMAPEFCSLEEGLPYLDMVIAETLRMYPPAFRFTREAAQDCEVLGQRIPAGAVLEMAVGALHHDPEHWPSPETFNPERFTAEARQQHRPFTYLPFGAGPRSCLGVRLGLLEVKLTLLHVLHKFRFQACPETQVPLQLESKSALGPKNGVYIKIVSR

[2] = molecular target: T1, Thromboxane-A synthase (Homo sapiens); assay: In vitro inhibition of TXA2 biosynthesis in human microsomal platelets relative to Sodium Furegrelate; format: functional, microsomes; conditions: Microsome
[3] = molecular target: T1, Thromboxane-A synthase (Homo sapiens); assay: Compound was tested for thromboxane synthase activity in microsomal preparations from human platelets(HPM); format: functional
[4] = molecular target: T1, Thromboxane-A synthase (Homo sapiens); assay: Compound was tested in vitro for its ability to inhibit TXA2 biosynthesis in human microsomal platelets; format: functional, microsomes; conditions: Microsome
[5] = system: Thromboxane-A synthase (Canis lupus familiaris); assay: Compound was tested for thromboxane synthase activity in microsomal preparations from dog lung(DLM)
[6] = system: Thromboxane-A synthase (Cavia porcellus); assay: Compound was tested for thromboxane synthase activity in microsomal preparations from guinea pig lung(GPLM)

| ED50 [1] | Relative potency [2] | SMILES | also measured |
| --- | --- | --- | --- |
| 30 ng/mL (≈ 0.125 µM) | 0.3 | O=C(O)c1cc2cc(-c3cccnc3)ccc2o1 |  |
| 10 ng/mL (≈ 0.0395 µM) |  | O=C(O)c1cc2cc(Cc3cccnc3)ccc2o1 | ED50 [3]: 10 ng/mL (≈ 0.0395 µM) |
| > 10000 ng/mL | < 0.0001 | O=C(O)c1cc2cc(Cc3cnccc3Cl)ccc2o1 |  |
| 3000 ng/mL (≈ 11.2 µM) | 0.003 | O=C(O)c1cc2ccc(CCc3cccnc3)cc2o1 |  |
|  |  | CCCCC[C@H](O)/C=C/[C@H]1C2CC(N=N2)[C@@H]1C/C=C\CCCC(=O)O (some centres not stated) | ED50 [4]: 30 ng/mL (≈ 0.0861 µM); Relative potency [4]: 0.3 |
| 30 ng/mL (≈ 0.112 µM) | 0.3 | Cc1cc(Cc2cccnc2)cc2cc(C(=O)O)oc12 |  |
| 300 ng/mL (≈ 1.19 µM) | 0.003 | NC(=O)c1cc2cc(Cc3cccnc3)ccc2o1 |  |
| 30 ng/mL (≈ 0.118 µM) | 0.3 | O=C(O)c1cc2ccc(Cc3cccnc3)cc2o1 |  |
| 30 ng/mL (≈ 0.106 µM) | 0.3 | COc1cc(Cc2cccnc2)cc2cc(C(=O)O)oc12 |  |
|  |  | O=C(O)c1cc2cc(Cc3ccc(Cl)nc3)ccc2o1 | ED50 [4]: > 10000 ng/mL; Relative potency [4]: < 0.001 |
| 3000 ng/mL (≈ 11.2 µM) | 0.003 | O=C(c1cccnc1)c1ccc2oc(C(=O)O)cc2c1 |  |
| 30 ng/mL (≈ 0.118 µM) | 0.3 | C/C(=C\c1ccc(Cc2cccnc2)cc1)C(=O)O | ED50 [3]: 30 ng/mL (≈ 0.118 µM); ED50 [5]: 3 ng/mL (≈ 0.0118 µM); ED50 [6]: 200 ng/mL (≈ 0.79 µM) |
| 3000 ng/mL (≈ 11.2 µM) | 0.003 | O=C(O)c1cc2cc(CCc3cccnc3)ccc2o1 |  |
|  |  | O=C(O)c1cc2cc(Cc3cccnc3Cl)ccc2o1 | ED50 [4]: 100 ng/mL (≈ 0.348 µM); Relative potency [4]: 0.1 |
|  |  | O=C(O)c1cc2cc(Cc3ccc[n+]([O-])c3)ccc2o1 | ED50 [4]: > 10000 ng/mL; Relative potency [4]: < 0.001 |
| 30 ng/mL (≈ 0.112 µM) | 0.3 | Cc1c(C(=O)O)oc2ccc(Cc3cccnc3)cc12 |  |
| 30 ng/mL (≈ 0.0903 µM) | 0.3 | O=C(O)c1cc2cc(Cc3cccnc3)cc(Br)c2o1 |  |
